From US12415786B2, “Substituted 2-heteroarylaminobenzenes and the salts thereof and their use as herbicidal agents” (Bayer Aktiengesellschaft, priority 2019, dated 2025)

Experiments:
Type in all cases: in vivo
[1] = test system: Agrostis tenuis; assay: Herbicidal early post-emergence action (96-well microtiter plates), AGSTE; conditions: 1900 g/ha, scored 9 to 12 days after treatment, 100% = plants have died, 0% = like untreated control plants
How it was run: (§1)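 Weed seeds grown in quartz sand in 96-well microtiter plates in a climate chamber and treated at the cotyledon stage, 5 to 7 days after sowing, with EC formulations at 2200 L/ha water and a rate equivalent to 1900 g/ha. Visual scoring after 9 to 12 days against untreated controls (0% = control, 100% = dead).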

[2] = test system: Poa annua; assay: Herbicidal early post-emergence action (96-well microtiter plates), POAAN; conditions: 1900 g/ha, scored 9 to 12 days after treatment, 100% = plants have died, 0% = like untreated control plants
How it was run: as §1

[3] = test system: Matricaria inodora; assay: Herbicidal post-emergence action (greenhouse pots), MATIN; conditions: 1280 g/ha, visual rating about 3 weeks after treatment vs untreated controls
Excerpt: (§2) In the examples and tables below, the following abbreviations are used: • Undesired Plants/Weeds: • ABUTH: Abutilon theophrasti • AGSTE: Agrostis tenuis • AMARE Amaranthus retroflexus • ECHCG: Echinochloa crus-galli • LOLRI: Lolium rigidum • MATIN: Matricaria inodora • POAAN: Poa annua • SETVI: Setaria viridis • STEME: Stellaria media A. Herbicidal Early Post-Emergence Action Seeds of mono- and dicotyledonous weed plants were placed in plastic pots in sandy loam soil (doubly sown with in each case one species of mono- or dicotyledonous weed plants per pot), covered with soil and cultivated in a greenhouse under controlled growth conditions. 2 to 3 weeks after sowing, the test plants were treated at the one-leaf stage. The compounds of the invention, formulated in the form of wettable powders (WP) or as emulsion concentrates (EC), were applied onto the green parts of the plants as aqueous suspension or emulsion with addition of 0.5% additive at a water application rate of 600 liters per hectare (converted). After the test plants had been kept in the greenhouse under optimum growth conditions for about 3 weeks, the activity of the preparations was rated visually in comparison to untreated controls. For example, 100% activity=the plants have died, 0% activity=like untreated control plants. Tables B1-B8 below show the effects of selected compounds of the general formula (I) according to Table 1 above on various harmful plants and an application rate corresponding to 1280 g/ha, which were obtained by the experimental procedure mentioned above.

[4] = test system: Poa annua; assay: Herbicidal post-emergence action (greenhouse pots), POAAN; conditions: 1280 g/ha, visual rating about 3 weeks after treatment vs untreated controls
Excerpt: as §2

[5] = test system: Matricaria inodora; assay: Herbicidal pre-emergence action (greenhouse pots), MATIN; conditions: 1280 g/ha, visual scoring after about 3 weeks vs untreated controls
How it was run: (§3)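 Sandy loam, seeds covered with soil; WP or EC formulation sprayed on soil surface, 600 L/ha water + 0.5% additive; rate 1280 g/ha; greenhouse ~3 wk; visual % effect vs untreated control.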

[6] = test system: Stellaria media; assay: Herbicidal pre-emergence action (greenhouse pots), STEME; conditions: 1280 g/ha, visual scoring after about 3 weeks vs untreated controls
How it was run: as §3

[7] = test system: Lolium rigidum; assay: Herbicidal pre-emergence action (greenhouse pots), LOLRI; conditions: 1280 g/ha, visual scoring after about 3 weeks vs untreated controls
Excerpt: (§4) In the examples and tables below, the following abbreviations are used: • Undesired Plants/Weeds: • ABUTH: Abutilon theophrasti • AGSTE: Agrostis tenuis • AMARE Amaranthus retroflexus • ECHCG: Echinochloa crus-galli • LOLRI: Lolium rigidum • MATIN: Matricaria inodora • POAAN: Poa annua • SETVI: Setaria viridis • STEME: Stellaria media A. Herbicidal Early Post-Emergence Action Seeds of mono- and dicotyledonous weed plants were placed in plastic pots in sandy loam soil (doubly sown with one species each of mono- or dicotyledonous weed plants per pot) and covered with soil. The compounds of the invention, formulated in the form of wettable powders (WP) or as emulsion concentrates (EC), were then applied onto the surface of the covering soil as aqueous suspension or emulsion with addition of 0.5% additive at a water application rate of 600 liters per hectare (converted). After the treatment, the pots were placed in a greenhouse and kept under good growth conditions for the test plants. After about 3 weeks, the effect of the preparations was scored visually in comparison with untreated controls as percentages. For example, 100% activity=the plants have died, 0% activity=like untreated control plants. Tables C1-C8 below show the effects of selected compounds of the general formula (I) according to Table 1 above on various harmful plants and an application rate corresponding to 1280 g/ha, which were obtained by the experimental procedure mentioned above.

[8] = test system: Stellaria media; assay: Herbicidal post-emergence action (greenhouse pots), STEME; conditions: 1280 g/ha, visual rating about 3 weeks after treatment vs untreated controls
How it was run: (§5)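 Activity is a visual percentage score (0% = like untreated controls, 100% = plants died) taken about 3 weeks after treatment. Plants grown in sandy loam under greenhouse conditions received 1280 g/ha onto green parts at the one-leaf stage, formulated as WP or EC with 0.5% additive.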

[9] = test system: Abutilon theophrasti; assay: Herbicidal pre-emergence action (greenhouse pots), ABUTH; conditions: 1280 g/ha, visual scoring after about 3 weeks vs untreated controls
Excerpt: as §4

[10] = test system: Abutilon theophrasti; assay: Herbicidal post-emergence action (greenhouse pots), ABUTH; conditions: 1280 g/ha, visual rating about 3 weeks after treatment vs untreated controls
Excerpt: as §2

[11] = test system: Amaranthus retroflexus; assay: Herbicidal post-emergence action (greenhouse pots), AMARE; conditions: 1280 g/ha, visual rating about 3 weeks after treatment vs untreated controls
How it was run: as §5

[12] = test system: Echinochloa crus-galli; assay: Herbicidal post-emergence action (greenhouse pots), ECHCG; conditions: 1280 g/ha, rated after about 3 weeks, 100% = plants have died, 0% = like untreated control plants
Excerpt: as §2

[13] = test system: Amaranthus retroflexus; assay: Herbicidal pre-emergence action (greenhouse pots), AMARE; conditions: 1280 g/ha, visual scoring after about 3 weeks vs untreated controls
How it was run: as §3

[14] = test system: Echinochloa crus-galli; assay: Herbicidal pre-emergence action (greenhouse pots), ECHCG; conditions: 1280 g/ha, visual scoring after about 3 weeks vs untreated controls
Excerpt: as §4

[15] = test system: Setaria viridis; assay: Herbicidal pre-emergence action (greenhouse pots), SETVI; conditions: 1280 g/ha, visual scoring after about 3 weeks vs untreated controls
How it was run: as §3

[16] = test system: Poa annua; assay: Herbicidal pre-emergence action (greenhouse pots), POAAN; conditions: 1280 g/ha, visual scoring after about 3 weeks vs untreated controls
How it was run: as §3

[17] = test system: Setaria viridis; assay: Herbicidal post-emergence action (greenhouse pots), SETVI; conditions: 1280 g/ha, rated after about 3 weeks, 100% = plants have died, 0% = like untreated control plants
Excerpt: as §2

SMILES | AGSTE (herbicidal activity, scored visually in comparison to untreated controls) [1] | POAAN (herbicidal activity, scored visually in comparison to untreated controls) [2] | herbicidal activity MATIN [3] | herbicidal activity POAAN [4] | herbicidal activity MATIN [5] | herbicidal activity STEME [6] | herbicidal activity LOLRI [7] | herbicidal activity STEME [8] | herbicidal activity ABUTH [9] | herbicidal activity ABUTH [10] | herbicidal activity AMARE [11] | ECHCG (herbicidal activity, rated visually in comparison to untreated controls) [12] | herbicidal activity AMARE [13] | herbicidal activity ECHCG [14] | herbicidal activity SETVI [15] | herbicidal activity POAAN [16] | SETVI (herbicidal activity, rated visually in comparison to untreated controls) [17]
N#Cc1cccc(Nc2ncc(Cl)cc2F)c1Oc1ccc(F)cc1 [Example 1-139] | 100% | 80% | 100% | 100% |  |  |  |  |  |  |  |  |  |  |  |  | 
N#Cc1cccc(Nc2ncccn2)c1Oc1ccc(F)cc1 [Example 1-248] | 100% | 100% |  | 100% | 100% | 100% | 100% | 100% | 100% | 100% | 100% | 100% | 100% | 100% | 100% | 100% | 
N#Cc1cccc(Nc2ncccn2)c1Oc1ccc(F)c(F)c1 [Example 1-253] | 100% | 100% |  |  | 100% | 100% | 100% | 100% |  | 100% | 100% | 100% | 100% | 100% | 100% | 100% | 90%
N#Cc1cccc(Nc2ncc(F)cn2)c1Oc1ccc(Cl)cc1 [Example 1-269] | 80% | 100% |  | 90% | 100% | 100% | 90% | 100% | 90% | 90% | 100% | 90% | 100% | 90% | 100% | 100% | 90%
N#Cc1cccc(Nc2ncc(F)cn2)c1Oc1cccc(C(F)(F)F)c1 [Example 1-278] | 100% | 100% |  |  | 100% | 100% | 100% | 100% |  | 90% | 100% | 90% | 100% |  | 100% | 100% | 
N#Cc1cccc(Nc2ncc(Cl)cn2)c1Oc1ccc(F)c(F)c1 [Example 1-291] | 100% | 100% |  | 100% | 100% | 100% | 100% | 100% |  | 100% | 100% | 100% | 100% | 90% | 100% | 100% | 100%
N#Cc1ccc(Oc2c(C#N)cccc2Nc2ncc(Cl)cn2)cc1 [Example 1-299] | 80% | 100% |  |  |  | 100% | 90% | 100% |  |  | 100% |  | 100% |  | 100% | 100% | 90%
N#Cc1cccc(Nc2ncc([N+](=O)[O-])cn2)c1Oc1ccc(F)cc1 [Example 1-306] | 100% | 80% | 100% |  | 90% | 100% |  | 100% |  |  |  |  | 100% |  | 100% |  | 
CCc1cnc(Nc2cccc(C#N)c2Oc2ccc(F)cc2)nc1 [Example 1-310] | 80% |  | 100% |  |  |  |  | 90% |  |  |  |  |  |  |  |  | 
Clc1cnc(Nc2ccccc2Oc2ccccc2)nc1 [Example 1-336] | 100% | 100% | 100% |  |  | 100% |  | 100% |  |  |  |  |  |  |  |  | 
N#Cc1cccc(Nc2ncc(F)cn2)c1Oc1cc(F)c(F)cc1F [Example 1-375] | 100% | 100% |  | 100% | 100% | 100% | 90% | 100% | 100% | 90% | 100% |  | 100% | 100% | 100% | 100% | 
N#Cc1cccc(Nc2ncc(F)cn2)c1Oc1ccc(Cl)nc1 [Example 3-54] | 100% | 100% |  | 100% | 100% | 100% | 100% | 90% | 100% | 100% | 100% |  | 100% | 100% | 100% | 100% | 90%
